Reference: patent publication US20180116849A1, “SYSTEMS AND METHODS FOR DETERMINING FAILURE OF INTRAGASTRIC DEVICES” (Obalon Therapeutics, Inc., priority 2015, published 2018)
Entries after “also recorded” stand apart in the source; their conditions may differ. Where a name gives a salt, the structure may show the parent alone. One block for each compound: values may come before it.

Experiments:
[1] = Colour, fluorescence or emission of the dye; assay type: physicochemical; conditions: dyes identified as indicator for balloon rupture
Protocol: Experiments were conducted to identify appropriate dyes that may be incorporated into their gastric balloon device to function as an indicator for balloon rupture. The characteristics of the dyes considered for selection included the following: acceptable toxicology profile, acceptable solubility, intensely absorbing (high color intensity), stable in the gastric environment, and stable during excretion so as to be visually identified by the patient or a caregiver.

[2] = cited from earlier work; for Solubility in water: The Merck Index
rat = conditions: cited from earlier work
mice = conditions: The Merck Index; cited from earlier work
[3] = after the consumption of asparagus; cited from earlier work
[4] = cited from earlier work; for Side-effect of turning urine a color: drugs that may be a source of false positives for balloon leakage; for Urine color produced: humans / patients exposed to the dye
[5] = Tables 4 and 5; cited from earlier work
[6] = The Merck Index; cited from earlier work
[7] = Meng et al. 2013, cited from earlier work
[8] = Tables 4 and 5; cited from earlier work; remark: listed apart in the source
patients = conditions: The Merck Index; cited from earlier work

Emission colour of dye identified as suitable [1]: red emission
Compound: O=C(O)C1=C/C(=C/C=[N+]2/c3cc(O)c(OC4OC(CO)[C@@H](O)C(O)C4O)cc3CC2C(=O)[O-])CC(C(=O)O)N1 (stereo in doubt) [betanin]

Compound: CN(C)CCC=C1c2ccccc2CCc2ccccc21 [Amitriptyline Hydrochloride, reference compound]
Solubility in chloroform (in words) ([2]; chloroform, salt): Salt is freely soluble
Solubility in water (in words) ([2]; water): Salt is freely soluble
LD50 (rats) (rat; rats, The Merck Index): 380 mg/kg
LD50 (mice) (mice): 350 mg/kg

Compound: O=C(O)C1CSSC1 [Asparagusic Acid]
Urine odor [3]: characteristic odor to urine

Compound: Cc1cc2nc3c(=O)[nH]c(=O)nc-3n(C[C@H](O)[C@H](O)[C@H](O)CO)c2cc1C [B vitamins (e.g. Riboflavin), Riboflavin]
Solubility ([2]; water): Solubility: 1 g in 3 L g in 3 L water

Compound: COc1cccc2c1C(=O)c1c(O)c3c(c(O)c1C2=O)C[C@@](O)(C(C)=O)C[C@@H]3O[C@H]1C[C@H](N)[C@H](O)[C@H](C)O1 [Daunorubicin]
Side-effect of turning urine a color [4]: red

Compound: CCN(Cc1cccc(S(=O)(=O)O)c1)c1ccc(C(=C2C=CC(=[N+](CC)Cc3cccc(S(=O)(=O)O)c3)C=C2)c2ccc(O)cc2S(=O)(=O)[O-])cc1 [Fast Green FCF]
Emission colour of dye identified as suitable [1]: green emission
Solubility in alcohols (in words) ([2]; alcohols): Very soluble in water,
Solubility in other organic solvents (in words) ([2]; other organic solvents): alcohols, insoluble in other
Solubility in water (in words) ([2]; water): Very soluble in water,
LD50 (rat) (rat; rat, in vivo): LD50 (rat) > 2 g/kg;
Toxicology (in words) [5]: may cause eye injury

Compound: O=C1/C(=C2\Nc3ccc(S(=O)(=O)[O-])cc3C2=O)Nc2ccc(S(=O)(=O)[O-])cc21.[Na+].[Na+] [Indigo carmine]
Emission colour of dye identified as suitable [1]: blue emission
Solubility in water [2]: 1.0 g per 100 mL of water
pH indicator-blue at pH [6]: pH indicator-blue at pH < 11
LD50 (rat, oral) (rat; rat, oral, Baker MSDS sheet): oral) = 2 g/kg (Baker

Compound: CN(C)c1ccc2c(c1)Sc1cc(N(C)C)ccc1N2 [Leukomethylene blue]
Excretion in urine ([7]; urine): excreted mostly unaltered

Compound: Cc1cc2nc3[nH]c(=O)[nH]c(=O)c3nc2cc1C [Lumichrome]
Solubility (in words, solvent not stated) [2]: poor solubility
Solubility in hot water (in words) ([2]; hot water): Sparingly soluble in hot water
Colour / fluorescence (Chemical Properties) [8]: Blue fluorescence
Urine color produced [4]: blue-green urine
Toxicology (in words) [5]: None

Compound: Cc1cc2nc3c(=O)[nH]c(=O)nc-3n(C)c2cc1C [Lumiflavine]
Solubility (in words, solvent not stated) [2]: poor solubility
Solubility in water (in words) ([2]; water): Very sparingly soluble in
Colour / fluorescence (Chemical Properties) [8]: Green fluorescence
Urine color produced [4]: blue-green urine
Toxicology (in words) [5]: None

Compound: COc1ccccc1OCC(O)COC(N)=O (stereo not drawn) [Methocarbamol, reference compound]
Toxicology: tolerability in patients (patients): Generally well-
Water soluble ([2]; @ 20 ° C.): Water soluble 2.5 g/ g/100 mL

Compound: COc1ccc2[nH]c([S+]([O-])Cc3ncc(C)c(OC)c3C)nc2c1 (stereo not drawn) [Omeprazole]
Side-effect of turning urine a color [4]: blue green

Compound: O=C(O)c1cc(O)c2c(c1)[C@H]([C@H]1c3cc(C(=O)O)cc(O)c3C(=O)c3c(O[C@@H]4O[C@H](CO)[C@@H](O)[C@H](O)[C@H]4O)cccc31)c1cccc(O[C@@H]3O[C@H](CO)[C@@H](O)[C@H](O)[C@H]3O)c1C2=O [Sennoside A]
Solubility in water (in words) ([2]; water): insoluble in water.

Compound: O=C(O)c1cc(O)c2c(c1)[C@@H]([C@H]1c3cc(C(=O)O)cc(O)c3C(=O)c3c(O[C@@H]4O[C@H](CO)[C@@H](O)[C@H](O)[C@H]4O)cccc31)c1cccc(O[C@@H]3O[C@H](CO)[C@@H](O)[C@H](O)[C@H]3O)c1C2=O [Sennoside B]
Solubility in water compared with Sennoside A ([2]; water, Merck): Sennoside B is more

Emission colour of dye identified as suitable [1]: blue emission
Compound: Nc1nc(N)c2nc(-c3ccccc3)c(N)nc2n1 [Triamterene, reference compound]
Toxicology: tolerability in patients (patients): Generally well-
Solubility in water [2]: 1 part soluble in 1000 part soluble in 1000 parts water

Compound: CCC(=O)O[C@@H](O[P@](=O)(CCCCc1ccccc1)CC(=O)N1C[C@H](C2CCCCC2)C[C@H]1C(=O)O)C(C)C [fosinopril]
Side-effect of turning urine a color [4]: blue green

Compound: CN(C)c1ccc2nc3ccc(N(C)C)cc3[s+]c2c1.[Cl-] [methylene blue]
Urine color produced [4]: blue-green discoloration of their urine; also recorded: blue-green color
Conversion on passage through the gastrointestinal tract ([7]; gastrointestinal tract): reduced to leukomethylene blue

Compound: Nc1ccc(/N=N/c2ccccc2)c(N)n1 [phenazopyridine]
Side-effect of turning urine a color [4]: red

Compound: CC[C@H](C)C(=O)O[C@H]1C[C@H](O)C=C2C=C[C@H](C)[C@H](CC[C@@H](O)C[C@@H](O)CC(=O)O)[C@H]21 [pravastatin]
Side-effect of turning urine a color [4]: blue green

Compound: CC(C)c1cccc(C(C)C)c1O [propofol]
Side-effect of turning urine a color [4]: green colored urine

Compound: CO[C@H]1/C=C/O[C@@]2(C)Oc3c(C)c(O)c4c(O)c(c(/C=N/N5CCN(C)CC5)c(O)c4c3C2=O)NC(=O)/C(C)=C\C=C\[C@H](C)[C@H](O)[C@@H](C)[C@@H](O)[C@@H](C)[C@H](OC(C)=O)[C@@H]1C [rifampin]
Side-effect of turning urine a color [4]: red

Compound: Betalain [Betalain (including betanin)]
Colour / fluorescence (Chemical Properties) [8]: Colored Red
